# From patent publication US7553105B1, “Method and compositions for treatment of subsurface contaminants” (Colorado School of Mines, priority 2005, dated 2009)
# Values joined by “and” are separate entries in the source; they are usually repeats but may differ in a detail not shown here. Identical values can stand only once. Like-named read-outs stand apart in the source and are kept apart here. Marks after values point to notes of the source that are not given here.
# Assays:
# [1] = Batch screening for compatibility of surfactants/cosolvents with KMnO4; conditions: for effect of surfactant concentration on compatibility with permanganate: FIG. 1
# Experimental: Seventy two surfactants were tested alone or in the presence of cosolvents to determine compatibility with KMnO4. Concentrations for each constituent corresponded to one of two remediation scenarios: (1) a relatively high wt-% of surfactants, i.e., 1-10 wt-%, is coupled with oxidants representative of conditions where a surfactant flush is conducted and followed by one or more water flushes, with high levels of surfactant remaining when the oxidant is introduced (note that this scenario could also represent co-injection of surfactant and oxidant); and (2) a relatively low wt-% of surfactant, i.e., 0.01-0.1 wt-%, is coupled with oxidants representative of conditions where a surfactant flush is conducted by water flush with low levels of surfactant remaining when the oxidant is introduced.
# The two cases are representative of the range of possible concentrations that may be encountered during pre- and post-remedial agent flushing scenarios. […] Potassium permanganate concentrations of 500 mg/L to 5,000 mg/L were used in the screening tests, these concentrations being representative for both laboratory conditions and field applications.
# Solutions containing surfactant alone, cosolvent alone, or mixtures of surfactant and cosolvent were used in the batch screening studies. Qualitative and quantitative criteria were used to define a compatible coupling. For example, a bright purple color provides a visual qualitative assessment regarding oxidant consumption, therefore solutions that remained bright purple with relatively few manganese dioxide solids generated throughout the 24-hour reaction period were deemed compatible.
# The batch screening samples were prepared in 40 ml type A borosilicate glass vials with Teflon®-lined septa. The desired surfactant concentration (corrected for active weight percent) was weighed and dispensed into each sample vial. Thirty milliliters of a 5,000 mg/L KMnO4 solution prepared with de-ionized water was dispensed into each vial. If cosolvent was present, the desired weight percent was added to the vial on a vol/vol basis. The total sample volume was 30-ml, leaving 10-ml of headspace in the event of gas or foam generation. The vials were shaken until the solutions were well mixed.
# Visual observation on each vial was made at three, twenty-four and forty-eight hours. The amount of oxidant remaining in the surfactant, or surfactant/cosolvent, solution was determined with a Hach DR/4000 Ultraviolet Spectrophotometer (UV Spec.). A 0.1 ml aliquot of sample was filtered with a 10-micron filter and dispensed into a 10-ml vial, followed by addition of 9.9 mLs of de-ionized water. The resultant solution has a permanganate dilution of less than 50 mg/L (ideal absorbance measurement range). Samples were analyzed at 525 nm for KMnO4 with final concentrations derived from a 6-point standard calibration curve.
# [2] = maximum contaminant level, USEPA; cited from earlier work
# [3] = 25° C.; cited from earlier work
# [4] = Solubility in water 20° C.; assay type: physicochemical; conditions: measured for this study
# [5] = Solubility of PCE in surfactants, co-surfactants and electrolytes versus water alone; assay type: physicochemical
# Experimental: Co-surfactants and electrolytes serve to further enhance the solubilization capacity of any given surfactant.
# Therefore use of equilibrium values in the prediction of surfactant enhanced remediation performance may result in the underestimation of remediation times and costs.
# PCE concentrations were determined using a Hewlett-Packard gas chromatograph (GC) equipped with auto-ampler and electron capture detector (ECD).
# [6] = vendor data, cited from earlier work
# [7] = literature; cited from earlier work
# [8] = Example 3 batch compatibility of cosolvents and surfactants with permanganate; conditions: 5,000 mg/L KMnO4; 24-48 hr observation
# Experimental: Batch studies were performed to evaluate the compatibility of alcohol cosolvents and surfactants for use with oxidants during treatment of DNAPLs.
# [9] = Interfacial tension, DuNuoy ring tensiometer; conditions: 3.5 wt % Dowfax 8390 solution equilibrated with PCE, average of five measurements
# [10] = Batch surfactant sorption experiments; assay type: physicochemical; conditions: medium-grained laboratory sand
# Source text: Adsorption isotherms of ionic surfactants onto charged sites are typically approximated using a Langmuir model (Rosen, 1989).
# [11] = Density of 3.5 wt % Dowfax 8390 solution; conditions: 3.5 wt % solution, 23° C., average of five measurements
# [12] = 3-hour observation, 3.5 wt % surfactant + 5000 mg/L KMnO4
# [13] = 24-hour observation, 3.5 wt % surfactant + 5000 mg/L KMnO4
# [14] = MnO4^− loss, 3-hour observation, 3.5 wt % surfactant + 5000 mg/L KMnO4
# [15] = MnO4^− loss, 24-hour observation, 3.5 wt % surfactant + 5000 mg/L KMnO4
compound,measurement,setting,value
"CCCCCCCCCCCCOS(=O)(=O)[O-].[Na+] [SDS, sodium dodecyl sulfate]",compatibility with permanganate,[1],compatible with permanganate
same,Average MnO4^−,[1]; [12],4523 mg/L
same,Average MnO4^−,[1]; [13],4393 mg/L
same,% mass loss,[1]; [14],6%
same,% mass loss,[1]; [15],20%
c1ccccc1 [Benzene],MCL,[2],0.005 mg/L
CCCCCCCCCC [n-Decane],Solubility in water,[3],0.053 µg/mL
"Cl[C@H]1[C@H](Cl)[C@@H](Cl)[C@@H](Cl)[C@H](Cl)[C@H]1Cl [Lindane (herbicide), Lindane]",Solubility in water,[3],7.3 µg/mL
CCCCCCCCCCCCc1ccc(S(=O)(=O)O)cc1 [SDBS],Average MnO4^−,[1]; [12],3442 mg/L
same,Average MnO4^−,[1]; [13],1896 mg/L
same,% mass loss,[1]; [14],29%
same,% mass loss,[1]; [15],61%
"ClC=C(Cl)Cl [Trichloroethene, trichloroethene]",MCL,[2],0.005 mg/L
Clc1ccccc1 [Chlorobenzene],Solubility in water,[3],472 µg/mL
"c1ccc2ccccc2c1 [Napthalene (PAH), Napthalene]",MCL,[2],0.0002 mg/L
same,Solubility in water,[3],33 µg/mL
Cc1ccc(C)cc1 [p-Xylene],MCL,[2],10 mg/L
same,Solubility in water,[3],210 µg/mL
CCc1ccccc1 [Ethylbenzene],MCL,[2],0.7 mg/L
same,Solubility in water,[3],152 µg/mL
Cc1ccccc1C [o-Xylene],Solubility in water,[3],175 µg/mL
CC(C)=O [Acetone],% mass loss,[1],98%
"ClC(Cl)=C(Cl)Cl [PCE, tetrachloroethene]",MCL,[2],0.005 mg/L
same,solubility,[4],250 µg/mL
same,5% Dowfax + 3% AOT: PCE,[5]; in 5% Dowfax + 3% AOT,"31,954 mg/L"
same,5% Dowfax + 3% AOT + 3% NaBr: PCE,[5]; in 5% Dowfax + 3% AOT + 3% NaBr,"107,284 mg/L"
same,5% SDS + 3% AOT: PCE,[5]; in 5% SDS + 3% AOT,"21,410 mg/L"
same,5% SDS + 3% AOT + 3% NaBr: PCE,[5]; in 5% SDS + 3% AOT + 3% NaBr,"62,700 mg/L"
same,PCE in water only,[5]; water only,200 mg/L
"CCCCCCCC/C=C\CCCCCCCC(=O)OCCOCC(OCCO)C1OCC(OCCO)C1OCCO (centres unmarked) [Tween 80, polyoxyethylene (20) sorbitan monooleate]",effect of surfactant concentration on compatibility with permanganate,[1],only compatible at low residual levels with permanganate
same,% mass loss,[1]; [14],100%
same,% mass loss,[1]; [15],100%
CCCCCCCC [n-Octane],Solubility in water,[3],0.72 µg/mL
"c1ccc2c(c1)ccc1ccccc12 [Phenanthrene (PAH), Phenanthrene]",MCL,[2],0.0002 mg/L
same,Solubility in water,[3],6.2 µg/mL
Sodium hexadecyl diphenyl oxide disulfonate [Dowfax 8390],CMC,[6]; critical micelle concentration,140 mg/L
same,HLB,[6],78.6
same,sorption to aquifer materials,[7],low sorption to aquifer materials
same,Relative Amount of MnO2 Solids Generated,[8],Few
same,Solution Color,[8],Dark
same,Interfacial Tension,[9],8.5^c dyne/cm
same,sorption to laboratory sand,[10],negligible
same,compatibility with permanganate,[1],compatible with permanganate
same,Average MnO4^−,[1]; [12],4458 mg/L
same,Average MnO4^−,[1]; [13],3980 mg/L
same,effect of surfactant concentration on compatibility with permanganate,[1],not dependent on surfactant concentration
same,% mass loss,[1]; [14],10%
same,% mass loss,[1]; [15],23%
same,Density,[11],1.007^c g/cm^3
(C16 linear) Sodium diphenyl oxide sulfonate [Calfax 16L-35],Average MnO4^−,[1]; [12],4340 mg/L
same,Average MnO4^−,[1]; [13],4183 mg/L
same,% mass loss,[1]; [14],14%
same,% mass loss,[1]; [15],15%
"Clc1cc2c(cc1Cl)Oc1cc(Cl)c(Cl)cc1O2 [Dioxin (2,3,7,8-TCDD), 2,3,7,8-TCDD]",MCL,[2],3e-08 mg/L
same,Solubility in water,[3],1.9e-09 µg/mL
CC(C)(C)O [tert-butanol],Relative Amount of MnO2 Solids Generated,[8],None
same,Solution Color,[8],Dark
same,% mass loss,[1],2% and 4%
same,Average MnO4^−,[1],5075 mg/L and 4986 mg/L
